According to publication PMC10066365, “Nemacol is a small molecule inhibitor of C. elegans vesicular acetylcholine transporter with anthelmintic potential” (Nature Communications, 2023):
“And” between values parts separate entries of the source, which are not always exact repeats. Equal entries are not always repeated.

Assays:
C. elegans = C. elegans motor phenotype scoring on solid media (Punc/jerky-unc, coiled, paralyzed), wild-type young adults; format: in vivo, Caenorhabditis elegans; conditions: for any phene, mean % fraction of young adults exhibiting any phenotype (coiled, jerky-Unc or paralyzed) / atypical locomotion (number of animals) / coiled (number of animals) / no phene (number of animals) / paralyzed (number of animals) / any phene: mean % fraction of young adults exhibiting any phenotype (coiled, jerky-Unc or paralyzed): one hour; for any phene, mean % fraction of young adults exhibiting any phenotype (coiled, jerky-Unc or paralyzed) / any phene: mean % fraction of young adults exhibiting any phenotype (coiled, jerky-Unc or paralyzed): mean of three biological replicates; for atypical locomotion (number of animals) / coiled (number of animals) / no phene (number of animals) / paralyzed (number of animals): young adults, 20 animals per trial; for EC50: Caenorhabditis elegans, any motor phenotype after 1 h on solid media, ± 95% CI, read-out: C. elegans - motor disruption EC50
[1] = test system: Dirofilaria immitis microfilariae; assay: Dirofilaria immitis microfilariae immobility assay (DiroImager, 72 h); conditions: Dirofilaria immitis microfilariae
Summary of the method: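 Motility read after 72 h drug exposure with an image-based high-throughput plate imager, 1% DMSO medium serving as negative control. Missouri-isolate microfilariae, roughly 250 per well, freshly purified and cultured in supplemented RPMI 1640.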

[2] = test system: Dirofilaria immitis L3/L4; assay: Dirofilaria immitis L3/L4 motility assay (DiroImager, 72 h); conditions: Dirofilaria immitis L4
Pristionchus pacificus = Pristionchus pacificus motor disruption dose-response on solid media, 1 h; conditions: for mean % any phene (coiled, jerky-Unc or paralyzed): Pristionchus pacificus young adults, mean of three biological replicates; for EC50: Pristionchus pacificus, 1 h, read-out: P. pacificus motor disruption EC50
[3] = 3.75uM, single replicate counts
[4] = conc 3.75, observed at one hour
[5] = 3.75uM, single technical replicate
[6] = 15uM, single technical replicate
[7] = 60uM, single technical replicate

O=[N+]([O-])c1ccc(N2CCN(c3ccccc3O)CC2)cc1 [Nemacol-13]
any phene, mean % fraction of young adults exhibiting any phenotype (coiled, jerky-Unc or paralyzed) (C. elegans; 3.75uM): 0.8333% | atypical locomotion (number of animals) (C. elegans; [3]): 0 and 1 | coiled (number of animals) (C. elegans; [3]): 0 | no phene (number of animals) (C. elegans; [3]): 20 and 19 | paralyzed (number of animals) (C. elegans; [3]): 0 | any phene, mean % fraction of young adults exhibiting any phenotype (coiled, jerky-Unc or paralyzed) (C. elegans; 15uM): 2.5% | atypical locomotion (number of animals) (C. elegans; 15uM, single replicate counts): 0 and 2 and 1 | coiled (number of animals) (C. elegans; 15uM, single replicate counts): 0 | no phene (number of animals) (C. elegans; 15uM, single replicate counts): 20 and 18 and 19 | paralyzed (number of animals) (C. elegans; 15uM, single replicate counts): 0 | any phene, mean % fraction of young adults exhibiting any phenotype (coiled, jerky-Unc or paralyzed) (C. elegans; 60uM): 20% | atypical locomotion (number of animals) (C. elegans; 60uM, single replicate counts): 0 and 11 and 13 | coiled (number of animals) (C. elegans; 60uM, single replicate counts): 0 | no phene (number of animals) (C. elegans; 60uM, single replicate counts): 20 and 9 and 7 | paralyzed (number of animals) (C. elegans; 60uM, single replicate counts): 0 | EC50 (C. elegans): > 60 µM | % effect (motility), DIROIM MF ([1]; 0.016 µM): 0% | % effect (motility), DIROIM MF ([1]; 0.08 µM): 0% | % effect (motility), DIROIM MF ([1]; 0.4 µM): 0% | % effect (motility), DIROIM MF ([1]; 2 µM): 0% | % effect (motility), DIROIM MF ([1]; 10 µM): 0% | % effect (motility), DIROIM L4 ([2]; 2 µM): 0% | % effect (motility), DIROIM L4 ([2]; 10 µM): 0% | % effect (motility), DIROIM L4 ([2]; 50 µM): 0% | mean % any phene (coiled, jerky-Unc or paralyzed) (Pristionchus pacificus; [4]): 0% | mean % any phene (coiled, jerky-Unc or paralyzed) (Pristionchus pacificus; conc 15, observed at one hour): 0% | mean % any phene (coiled, jerky-Unc or paralyzed) (Pristionchus pacificus; conc 60, observed at one hour): 9.167% | EC50 (Pristionchus pacificus): > 60 µM

FC(F)(F)c1cccc(N2CCN(C3CCCCCC3)CC2)c1 [Nemacol-52]
atypical locomotion (number of animals) (C. elegans; [5]): 14 and 12 and 10 and 8 and 15 | coiled (number of animals) (C. elegans; [5]): 0 | no phene (number of animals) (C. elegans; [5]): 4 and 6 and 10 and 12 and 5 | paralyzed (number of animals) (C. elegans; [5]): 2 and 0 | any phene: mean % fraction of young adults exhibiting any phenotype (coiled, jerky-Unc or paralyzed) (C. elegans; 3.75uM): 64.1667% | atypical locomotion (number of animals) (C. elegans; [6]): 12 and 7 and 8 and 10 and 13 and 9 | coiled (number of animals) (C. elegans; [6]): 0 and 7 and 4 and 5 | no phene (number of animals) (C. elegans; [6]): 0 | paralyzed (number of animals) (C. elegans; [6]): 8 and 13 and 5 and 6 and 2 and 7 | any phene: mean % fraction of young adults exhibiting any phenotype (coiled, jerky-Unc or paralyzed) (C. elegans; 15uM): 100% | atypical locomotion (number of animals) (C. elegans; [7]): 12 and 8 and 7 and 6 and 13 | coiled (number of animals) (C. elegans; [7]): 0 and 1 | no phene (number of animals) (C. elegans; [7]): 0 | paralyzed (number of animals) (C. elegans; [7]): 8 and 12 and 13 and 7 | any phene: mean % fraction of young adults exhibiting any phenotype (coiled, jerky-Unc or paralyzed) (C. elegans; 60uM): 100% | EC50 (C. elegans): 3.6 µM | % effect (motility), DIROIM MF ([1]; 0.016 µM): 0% | % effect (motility), DIROIM MF ([1]; 0.08 µM): 0% | % effect (motility), DIROIM MF ([1]; 0.4 µM): 0% | % effect (motility), DIROIM MF ([1]; 2 µM): 0% | % effect (motility), DIROIM MF ([1]; 10 µM): 0% | % effect (motility), DIROIM L4 ([2]; 2 µM): 0% | % effect (motility), DIROIM L4 ([2]; 10 µM): 0% | % effect (motility), DIROIM L4 ([2]; 50 µM): 15% | mean % any phene (coiled, jerky-Unc or paralyzed) (Pristionchus pacificus; [4]): 5% | mean % any phene (coiled, jerky-Unc or paralyzed) (Pristionchus pacificus; conc 15, observed at one hour): 21.6667% | mean % any phene (coiled, jerky-Unc or paralyzed) (Pristionchus pacificus; conc 60, observed at one hour): 97.5% | EC50 (Pristionchus pacificus): 21.7 ± 3.7 µM
